Test results from ChEMBL document CHEMBL1201862, “PubChem BioAssay data set” (2004).
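Dose response: 5 concentrations. Exposure: 48 h. Format: 96-well plates. Endpoint: linear interpolation; highest concentration if not reached. Here, GI50 denotes the concentration required for 50% inhibition of growth.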 The source made the active and inactive calls. No stated cut-off is given here; in the data, active = GI50 up to about 1.1 µM and inactive = higher.

What was measured:
Assay in all cases: NCI tumour cell line growth inhibition, 48 h
SNB-75 = system: SNB-75
OVCAR-4 = system: OVCAR-4
OVCAR-5 = system: OVCAR-5
DMS-273 = system: DMS-273
KM-20L2 = system: KM-20L2
M19-MEL = system: M19-MEL
XF498 = system: XF498
EKVX = system: EKVX
UACC-257 = system: UACC-257
NCI-H522 = system: NCI-H522
NCI-H460 = system: NCI-H460
IGROV-1 = system: IGROV-1
HCT-116 = system: HCT-116
M14 = system: M14
786-0 = system: 786-0
ACHN = system: ACHN

Measured: GI50

CC1=CC(O)C(O)C2(C)C1CC1OC(=O)C(O)C3C(C)C(O)C4(O)OCC13C42 (configuration not stated)
inactive: SNB-75 6.18 µM | OVCAR-4 40.9 µM | OVCAR-5 161 µM | DMS-273 153 µM | KM-20L2 22.4 µM | M19-MEL 56 µM | XF498 53.1 µM | EKVX 30.9 µM | UACC-257 103 µM | NCI-H522 50.5 µM | NCI-H460 7.82 µM | IGROV-1 15.9 µM | HCT-116 99.5 µM

CC(C)[C@](O)(C(=O)OCC1CC[N+]2([O-])CC[C@@H](O)C12)[C@H](C)O (some centres not stated)
inactive: SNB-75 126 µM | OVCAR-4 > 375 µM | OVCAR-5 > 375 µM | DMS-273 > 375 µM | KM-20L2 > 375 µM | M19-MEL > 375 µM | XF498 > 375 µM | EKVX > 375 µM | UACC-257 > 375 µM | NCI-H522 > 375 µM | NCI-H460 > 122 µM | IGROV-1 > 375 µM | HCT-116 > 255 µM

COc1cc2c(oc(=O)c3cc4cc([Si](C)(C)C)oc4c(OC)c32)c2cccc(O)c12
inactive: SNB-75 > 100 µM | M14 > 100 µM | 786-0 > 100 µM | OVCAR-4 > 100 µM | OVCAR-5 > 100 µM | DMS-273 > 100 µM | KM-20L2 > 100 µM | M19-MEL > 100 µM | XF498 > 100 µM | EKVX > 100 µM | UACC-257 > 100 µM | NCI-H522 > 100 µM | NCI-H460 > 100 µM | IGROV-1 > 100 µM | HCT-116 > 100 µM | ACHN > 100 µM
